The test concerns the target T1, HCV1b NS5B polymerase delta 21 (Hepatitis C virus genotype 1b, UniProt P26663).
T1 construct: purified HCV1b NS5B polymerase delta 21
Put plainly: RNA-Dependent RNA HCV NS5B (Polymerase) Assay and IC50 Determination. In kind it is biochemical. As to the method: RNA-Dependent RNA HCV NS5B (Polymerase) Assay and IC50 Determination
In vitro RNA-dependent RNA polymerase activity was determined in a reaction mixture (50 μL) containing 50 mM Tris-HCl, pH 7.5, 5 mM MgCl2, 1 mM dithiothreitol, 0.5% Triton® X-100, 10 μM of UTP, 0.1-0.5 μCi of α-^32P UTP (Perkin Elmer Life Sciences), 1 μg of polyA:U16 (Midland Oligo), and 0.6 μg of purified HCV1b NS5B polymerase delta 21. Different concentrations of compounds were added to the reaction mixtures. The reaction was carried out at RT (23° C.) for 60 min and then stopped by the addition of 100 μL of 50 mM EDTA. The reaction mixtures were filtered through either a DE81 membrane or a positively charged nylon membrane, and the membranes were then extensively washed with 30 mM sodium citrate, pH 7.0 and 300 mM NaCl. The radiolabeled RNA products were quantitated using a Storm™ Phosphorlmager™ (GE Life Sciences). IC50 values were calculated using GraFit 6 and GraphPad Prism 5 from triplicate assays.

The term pIC50 denotes −log10 of the IC50, conventionally taken in molar units. A low value points to a high IC50.

pIC50: −log10 of the molar value. A value given as a limit tells only on which side of the number the result lay.

T1 sequence (P26663 2420-2989): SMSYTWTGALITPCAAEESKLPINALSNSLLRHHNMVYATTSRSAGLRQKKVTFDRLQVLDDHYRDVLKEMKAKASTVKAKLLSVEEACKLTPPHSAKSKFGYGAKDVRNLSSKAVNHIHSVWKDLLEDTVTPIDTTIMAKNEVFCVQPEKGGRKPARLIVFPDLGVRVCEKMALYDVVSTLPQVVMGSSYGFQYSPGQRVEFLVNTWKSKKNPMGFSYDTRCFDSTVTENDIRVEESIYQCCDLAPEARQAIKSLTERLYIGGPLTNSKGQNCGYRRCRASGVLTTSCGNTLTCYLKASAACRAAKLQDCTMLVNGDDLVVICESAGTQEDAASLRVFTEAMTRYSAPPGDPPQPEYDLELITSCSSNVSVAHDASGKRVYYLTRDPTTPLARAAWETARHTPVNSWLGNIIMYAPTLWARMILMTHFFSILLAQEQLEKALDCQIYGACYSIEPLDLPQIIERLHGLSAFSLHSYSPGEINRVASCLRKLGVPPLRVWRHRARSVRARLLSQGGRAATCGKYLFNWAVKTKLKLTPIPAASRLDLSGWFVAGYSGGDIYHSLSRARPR

In turn, `CC1CCC(C2=C(c3cc(-c4ccc(-n5cc6ncccc6n5)cc4)sc3C(=O)O)CCN(C)C2)CC1` (centres unmarked) [Example 165, 3-[1-Methyl-5-(4-methyl-cyclohexyl)-1,2,3,6-tetrahydro-pyridin-4-yl]-5-(4-pyrazolo[4,3-b]pyridin-2-yl-phenyl)-thiophene-2-carboxylic acid] showed a pIC50 greater than 5.52.

Consider `CC1CCC(C2=C(c3cc(-c4ccccc4)sc3C(=O)O)CCN(C(=O)c3ccc(C(F)(F)F)nc3)C2)CC1` (centres unmarked) [Example 154, 3-[5-(4-Methyl-cyclohexyl)-1-(6-trifluoromethyl-pyridine-3-carbonyl)-1,2,3,6-tetrahydro-pyridin-4-yl]-5-phenyl-thiophene-2-carboxylic acid], for which the pIC50 was greater than 5.52.

For `CC1CCC(C2=C(c3cc(-c4ccccc4)sc3C(=O)O)CCN(C(=O)Cn3cnc4ccccc43)C2)CC1` (centres unmarked) [Example 152, 3-[1-(2-Benzoimidazol-1-yl-acetyl)-5-(4-methyl-cyclohexyl)-1,2,3,6-tetrahydro-pyridin-4-yl]-5-phenyl-thiophene-2-carboxylic acid], the pIC50 is greater than 5.52.

Regarding `CC1CCC(C2=C(c3cc(C#CC(C)(C)C)sc3C(=O)O)CN(C)CC2)CC1` (centres unmarked) [Example 112, 5-(3,3-Dimethyl-but-1-ynyl)-3-[1-methyl-4-(4-methyl-cyclohexyl)-1,2,5,6-tetrahydro-pyridin-3-yl]-thiophene-2-carboxylic acid], the pIC50 is greater than 5.52.

For `CCN1CCC(c2cc(C#CC3CCCC3)sc2C(=O)O)=C(C2CCC(C)CC2)C1` (centres unmarked) [Example 031, 5-Cyclopentylethynyl-3-[1-ethyl-5-(4-methyl-cyclohexyl)-1,2,3,6-tetrahydro-pyridin-4-yl]-thiophene-2-carboxylic acid], the pIC50 is 5.00 to 5.52.

In turn, `CC(=O)OCOC(=O)c1sc(-c2ccc(NC(=O)c3cscn3)cc2)cc1C1=C(C2CCC(C)CC2)CN(C)CC1` (centres unmarked) [Example 102, 3-[1-Methyl-5-(4-methyl-cyclohexyl)-1,2,3,6-tetrahydro-pyridin-4-yl]-5-{4-[(thiazole-4-carbonyl)-amino]-phenyl}-thiophene-2-carboxylic acid acetoxymethyl ester] showed a pIC50 of less than 5.00.

On to `CC1CCC(C2=C(c3cc(C#CC(C)(C)C)sc3C(=O)O)CN(CCO)CC2)CC1` (centres unmarked) [Example 113, 5-(3,3-Dimethyl-but-1-ynyl)-3-[1-(2-hydroxy-ethyl)-4-(4-methyl-cyclohexyl)-1,2,5,6-tetrahydro-pyridin-3-yl]-thiophene-2-carboxylic acid], for which the pIC50 was greater than 5.52.

In turn, `CC1CCC(C2=C(c3cc(-c4ccccc4)sc3C(=O)O)CCN(Cc3ccc(Cl)cc3)C2)CC1` (centres unmarked) [Example 086, 3-[1-(4-Chloro-benzyl)-5-(4-methyl-cyclohexyl)-1,2,3,6-tetrahydro-pyridin-4-yl]-5-phenyl-thiophene-2-carboxylic acid] showed a pIC50 of 5.00 to 5.52.

Compound `CC1CCC(C2=C(c3cc(-c4ccc(NC(=O)c5cscn5)cc4)sc3C(=O)O)CN(C)CC2)CC1` (centres unmarked) [Example 167, 3-[1-Methyl-4-(4-methyl-cyclohexyl)-1,2,5,6-tetrahydro-pyridin-3-yl]-5-{4-[(thiazole-4-carbonyl)-amino]-phenyl}-thiophene-2-carboxylic acid] had a pIC50 greater than 5.52.

For the compound `Cc1nn(C)cc1CN1CCC(c2cc(C#CC(C)(C)C)sc2C(=O)O)=C(C2CCC(C)CC2)C1` (centres unmarked) [Example 142, 5-(3,3-Dimethyl-but-1-ynyl)-3-[1-(1,3-dimethyl-1H-pyrazol-4-ylmethyl)-5-(4-methyl-cyclohexyl)-1,2,3,6-tetrahydro-pyridin-4-yl]-thiophene-2-carboxylic acid], the pIC50 is greater than 5.52.

As for `CC1CCC(C2=C(c3cc(C#CC(C)(C)C)sc3C(=O)O)CCN(Cc3ccncc3)C2)CC1` (centres unmarked) [Example 133, 5-(3,3-Dimethyl-but-1-ynyl)-3-[5-(4-methyl-cyclohexyl)-1-pyridin-4-ylmethyl-1,2,3,6-tetrahydro-pyridin-4-yl]-thiophene-2-carboxylic acid], the pIC50 is 5.00 to 5.52.

(Values after patent US8771665B2 (Cocrystal Discovery, Inc., priority 2010, dated 2014).)
